Data from patent US20260250318A1, “COMPOSITIONS AND METHODS FOR CROSSING THE BLOOD BRAIN BARRIER” (VOYAGER THERAPEUTICS, INC., priority 2022, published 2026).

tested on: brains, heart, liver, muscle, and DRG of the NHPs; assay: Maturation of TTM-001 and TTM-002 capsids, NGS enrichment in NHP tissues; assay type: in vivo; settings: NGS fold-enrichment of RNA, NHP brain, relative to AAV9 control
How it was run: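 Variants carry mutations within and flanking the loop IV peptide insert: positions 450–466 were triplet-randomized, while positions 449–466 received low-frequency point mutations. The combined pool went into two NHPs, and each peptide was scored by NGS enrichment ratio against AAV9.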

Row | Sequence | Fold Enrichment relative to AAV9, Brain (NHP)
1 | KTINGHDSPHKSRLNQPT | 92.883 fold
2 | KTINGSGSPHSKGHWQQT | 81.434 fold
3 | KTINGHESPHKSGRSQQT | 97.106 fold
4 | KTITGHDSPHKSGQHLQT | 137.945 fold
5 | KTINGSGSPHSKAQPAKT | 111.472 fold
6 | KTINGHGSPHSKAQNPQT | 83.478 fold
7 | KSINESGSPHSKAQNQQI | 113.833 fold

same assay, conditions: NGS fold-enrichment of matured AAV capsid variants; NHP brain, RNA; relative to AAV9 control

Row | Sequence | Fold Enrichment relative to AAV9, Brain (NHP)
8 | KTINGSGSPHSKAQGSLT | 54.717 fold
9 | KTINGSGSPHSKAQRMST | 58.435 fold
10 | KNNLGSGSPHSKAQNQQT | 50.670 fold
11 | KTINGSGSPHSKAQAIHT | 56.047 fold
12 | KTVNGNGSPHSKSQNQQT | 54.586 fold

same assay, conditions: NGS fold-enrichment, DRG of NHPs, relative to AAV9 control

Row | Sequence | Fold Enrichment relative to AAV9, DRG (NHP)
13 | KTINGSGSPHSKGHWQQT | 0.000 fold
14 | KTTNGSGSPHSKAHNQLT | 0.000 fold
15 | KTINGSGSPHSKAQDRPT | 0.132 fold
16 | KTINGSGSPHSKAQGQQA | 0.000 fold
17 | KTINGSGSPHSKAQPAKT | 0.331 fold
18 | KTSNASGSPHSKAHNQQT | 0.000 fold
19 | KSINESGSPHSKAQNQQI | 0.000 fold

same assay, conditions: NGS fold-enrichment, NHP DRG, relative to AAV9 control

Row | Sequence | Fold Enrichment relative to AAV9, DRG (NHP)
20 | KTINGHDSPHKSRLNQPT | 0.000 fold
21 | KTINGSGSPHSKGHWQQT | 0.000 fold
22 | KTINGHESPHKSGRSQQT | 0.000 fold
23 | KTITGHDSPHKSGQHLQT | 0.000 fold
24 | KTINGSGSPHSKAQPAKT | 0.331 fold
25 | KTINGHGSPHSKAQNPQT | 0.000 fold
26 | KSINESGSPHSKAQNQQI | 0.000 fold

same assay, conditions: NGS fold-enrichment, NHP heart, relative to AAV9 control

Row | Sequence | Fold Enrichment relative to AAV9, Heart (NHP)
27 | KTINGHDSPHKSRLNQPT | 0.070 fold
28 | KTINGSGSPHSKGHWQQT | 0.000 fold
29 | KTINGHESPHKSGRSQQT | 3.329 fold
30 | KTITGHDSPHKSGQHLQT | 0.072 fold
31 | KTINGSGSPHSKAQPAKT | 0.000 fold
32 | KTINGHGSPHSKAQNPQT | 0.288 fold
33 | KSINESGSPHSKAQNQQI | 0.000 fold

same assay, conditions: NGS fold-enrichment, NHP liver DNA, relative to AAV9 control

Row | Sequence | Fold Enrichment relative to AAV9, Liver DNA (NHP)
34 | KTINGHDSPHKSRLNQPT | 1.075 fold
35 | KTINGSGSPHSKGHWQQT | 1.011 fold
36 | KTINGHESPHKSGRSQQT | 0.181 fold
37 | KTITGHDSPHKSGQHLQT | 0.000 fold
38 | KTINGSGSPHSKAQPAKT | 1.796 fold
39 | KTINGHGSPHSKAQNPQT | 0.260 fold
40 | KSINESGSPHSKAQNQQI | 0.000 fold

same assay, conditions: NGS fold-enrichment, NHP liver RNA, relative to AAV9 control

Row | Sequence | Fold Enrichment relative to AAV9, Liver RNA (NHP)
41 | KTINGHDSPHKSRLNQPT | 0.904 fold
42 | KTINGSGSPHSKGHWQQT | 0.000 fold
43 | KTINGHESPHKSGRSQQT | 0.000 fold
44 | KTITGHDSPHKSGQHLQT | 0.000 fold
45 | KTINGSGSPHSKAQPAKT | 0.044 fold
46 | KTINGHGSPHSKAQNPQT | 0.000 fold
47 | KSINESGSPHSKAQNQQI | 0.000 fold

same assay, conditions: NGS fold-enrichment, NHP muscle, relative to AAV9 control

Row | Sequence | Fold Enrichment relative to AAV9, Muscle (NHP)
48 | KTINGHDSPHKSRLNQPT | 0.050 fold
49 | KTINGSGSPHSKGHWQQT | 0.000 fold
50 | KTINGHESPHKSGRSQQT | 0.022 fold
51 | KTITGHDSPHKSGQHLQT | 0.000 fold
52 | KTINGSGSPHSKAQPAKT | 1.089 fold
53 | KTINGHGSPHSKAQNPQT | 0.219 fold
54 | KSINESGSPHSKAQNQQI | 0.000 fold

same assay, conditions: NGS fold-enrichment, RNA, brain of NHPs, relative to AAV9 control

Row | Sequence | Fold Enrichment relative to AAV9, Brain (NHP)
55 | KTINGSGSPHSKGHWQQT | 81.434 fold
56 | KTTNGSGSPHSKAHNQLT | 69.062 fold
57 | KTINGSGSPHSKAQDRPT | 70.831 fold
58 | KTINGSGSPHSKAQGQQA | 64.128 fold
59 | KTINGSGSPHSKAQPAKT | 111.472 fold
60 | KTSNASGSPHSKAHNQQT | 59.607 fold
61 | KSINESGSPHSKAQNQQI | 113.833 fold

same assay, conditions: NGS fold-enrichment, heart of NHPs, relative to AAV9 control

Row | Sequence | Fold Enrichment relative to AAV9, Heart (NHP)
62 | KTINGSGSPHSKGHWQQT | 0.000 fold
63 | KTTNGSGSPHSKAHNQLT | 0.000 fold
64 | KTINGSGSPHSKAQDRPT | 0.006 fold
65 | KTINGSGSPHSKAQGQQA | 0.185 fold
66 | KTINGSGSPHSKAQPAKT | 0.000 fold
67 | KTSNASGSPHSKAHNQQT | 0.078 fold
68 | KSINESGSPHSKAQNQQI | 0.000 fold

same assay, conditions: NGS fold-enrichment, liver DNA of NHPs, relative to AAV9 control

Row | Sequence | Fold Enrichment relative to AAV9, Liver DNA (NHP)
69 | KTINGSGSPHSKGHWQQT | 1.011 fold
70 | KTTNGSGSPHSKAHNQLT | 0.000 fold
71 | KTINGSGSPHSKAQDRPT | 0.379 fold
72 | KTINGSGSPHSKAQGQQA | 0.195 fold
73 | KTINGSGSPHSKAQPAKT | 1.796 fold
74 | KTSNASGSPHSKAHNQQT | 0.050 fold
75 | KSINESGSPHSKAQNQQI | 0.000 fold

same assay, conditions: NGS fold-enrichment, liver RNA of NHPs, relative to AAV9 control

Row | Sequence | Fold Enrichment relative to AAV9, Liver RNA (NHP)
76 | KTINGSGSPHSKGHWQQT | 0.000 fold
77 | KTTNGSGSPHSKAHNQLT | 0.708 fold
78 | KTINGSGSPHSKAQDRPT | 0.039 fold
79 | KTINGSGSPHSKAQGQQA | 0.063 fold
80 | KTINGSGSPHSKAQPAKT | 0.044 fold
81 | KTSNASGSPHSKAHNQQT | 0.031 fold
82 | KSINESGSPHSKAQNQQI | 0.000 fold

same assay, conditions: NGS fold-enrichment, muscle of NHPs, relative to AAV9 control

Row | Sequence | Fold Enrichment relative to AAV9, Muscle (NHP)
83 | KTINGSGSPHSKGHWQQT | 0.000 fold
84 | KTTNGSGSPHSKAHNQLT | 0.000 fold
85 | KTINGSGSPHSKAQDRPT | 0.000 fold
86 | KTINGSGSPHSKAQGQQA | 0.000 fold
87 | KTINGSGSPHSKAQPAKT | 1.089 fold
88 | KTSNASGSPHSKAHNQQT | 0.067 fold
89 | KSINESGSPHSKAQNQQI | 0.000 fold

same assay, conditions: NHP DRG; relative to AAV9 control

Row | Sequence | Fold Enrichment relative to AAV9, DRG (NHP)
90 | KTINGSGSPHSKAQGSLT | 0.000 fold
91 | KTINGSGSPHSKAQRMST | 0.192 fold
92 | KNNLGSGSPHSKAQNQQT | 0.000 fold
93 | KTINGSGSPHSKAQAIHT | 0.000 fold
94 | KTVNGNGSPHSKSQNQQT | 0.000 fold

same assay, conditions: NHP heart; relative to AAV9 control

Row | Sequence | Fold Enrichment relative to AAV9, Heart (NHP)
95 | KTINGSGSPHSKAQGSLT | 0.006 fold
96 | KTINGSGSPHSKAQRMST | 0.037 fold
97 | KNNLGSGSPHSKAQNQQT | 0.019 fold
98 | KTINGSGSPHSKAQAIHT | 0.000 fold
99 | KTVNGNGSPHSKSQNQQT | 0.000 fold

same assay, conditions: NHP liver, DNA; relative to AAV9 control

Row | Sequence | Fold Enrichment relative to AAV9, Liver DNA (NHP)
100 | KTINGSGSPHSKAQGSLT | 0.298 fold
101 | KTINGSGSPHSKAQRMST | 0.882 fold
102 | KNNLGSGSPHSKAQNQQT | 0.121 fold
103 | KTINGSGSPHSKAQAIHT | 0.890 fold
104 | KTVNGNGSPHSKSQNQQT | 0.168 fold

same assay, conditions: NHP liver, RNA; relative to AAV9 control

Row | Sequence | Fold Enrichment relative to AAV9, Liver RNA (NHP)
105 | KTINGSGSPHSKAQGSLT | 0.480 fold
106 | KTINGSGSPHSKAQRMST | 1.707 fold
107 | KNNLGSGSPHSKAQNQQT | 0.406 fold
108 | KTINGSGSPHSKAQAIHT | 0.887 fold
109 | KTVNGNGSPHSKSQNQQT | 0.256 fold

same assay, conditions: NHP muscle; relative to AAV9 control

Row | Sequence | Fold Enrichment relative to AAV9, Muscle (NHP)
110 | KTINGSGSPHSKAQGSLT | 0.013 fold
111 | KTINGSGSPHSKAQRMST | 0.000 fold
112 | KNNLGSGSPHSKAQNQQT | 0.000 fold
113 | KTINGSGSPHSKAQAIHT | 212.32 fold
114 | KTVNGNGSPHSKSQNQQT | 0.000 fold

tested on: brain; assay: Matured TTM-001 and TTM-002 variants, NGS enrichment in mouse brain; assay type: in vivo, mice; settings: NGS fold-enrichment, brain of mice, relative to AAV9 control

Row | Sequence | Fold Enrichment relative to AAV9, Brain (Mouse)
115 | KTINGSGSPHSKGHWQQT | 65.252 fold
116 | KTTNGSGSPHSKAHNQLT | 65.505 fold
117 | KTINGSGSPHSKAQDRPT | 66.800 fold
118 | KTINGSGSPHSKAQGQQA | 64.116 fold
119 | KTINGSGSPHSKAQPAKT | 215.275 fold
120 | KTSNASGSPHSKAHNQQT | 67.967 fold
121 | KSINESGSPHSKAQNQQI | 67.649 fold

same assay, conditions: NGS fold-enrichment, mouse brain, relative to AAV9 control

Row | Sequence | Fold Enrichment relative to AAV9, Brain (Mouse)
122 | KTINGHDSPHKSRLNQPT | 5.598 fold
123 | KTINGSGSPHSKGHWQQT | 65.252 fold
124 | KTINGHESPHKSGRSQQT | 9.378 fold
125 | KTITGHDSPHKSGQHLQT | 4.187 fold
126 | KTINGSGSPHSKAQPAKT | 215.275 fold
127 | KTINGHGSPHSKAQNPQT | 11.001 fold
128 | KSINESGSPHSKAQNQQI | 67.649 fold

same assay, conditions: mouse brain; relative to AAV9 control

Row | Sequence | Fold Enrichment relative to AAV9, Brain (Mouse)
129 | KTINGSGSPHSKAQGSLT | 142.786 fold
130 | KTINGSGSPHSKAQRMST | 53.414 fold
131 | KNNLGSGSPHSKAQNQQT | 102.408 fold
132 | KTINGSGSPHSKAQAIHT | 81.908 fold
133 | KTVNGNGSPHSKSQNQQT | 95.384 fold
